From patent US20250127734A1, “ALZ-801 FOR USE IN TREATING A COVID-19 ASSOCIATED NEUROLOGICAL SYMPTOM” (Alzheon, Inc., priority 2022, published 2025)
Several values for one entry are separate records, joined by “and”; a condition that tells them apart may be missing. Identical values can stand only once.

B1: lecanemab: anti-amyloid antibody (antibody, chains of the INN, looked up, V domains shown)
VH: EVQLVESGGGLVQPGGSLRLSCSASGFTFSSFGMHWVRQAPGKGLEWVAYISSGSSTIYYGDTVKGRFTISRDNAKNSLFLQMSSLRAEDTAVYYCAREGGYYYGRSYYTMDYWGQGTTVTVSS
VL: DVVMTQSPLSLPVTPGAPASISCRSSQSIVHSNGNTYLEWYLQKPGQSPKLLIYKVSNRFSGVPDRFSGSGSGTDFTLRISRVEAEDVGIYYCFQGSHVPPTFGPGTKLEIK

Key:
plasma p-tau181 = experiment: Phase 2 trial in early AD APOE4 carriers: plasma p-tau181 (Simoa); format: in vivo, human; conditions: 265 mg BID oral, APOE4/4 or APOE3/4, change from baseline
Protocol: (§1) Evaluation of disease modifying effects from phase 2 trial of ALZ-801 (valiltramiprosate) in subjects with early Alzheimer's disease were conducted. The study enrolled 84 patients, with early AD, who carry the APOE4/4 or APOE3/4 genotype and have an MMSE score ranging from 22 to 30 (CDR-G 0.5 or 1). Each patient received 265 mg ALZ-801 twice daily. The average MMSE score of the subjects was 26 (mean age 69 years, 52% female). Subjects were either amyloid PET positive or A+/T+ on CSF assays. CSF criteria were: Ratio of Aβ42/40×10≤0.61, and p-tau181≥61 pg/ml. CSF was evaluated at 52 weeks, and plasma biomarkers at every visit.
(§2) All fluid biomarker analyses were performed at the Neurochemistry Laboratory of Dr. Blennow (Molndal, Sweden), and were blinded to subject's demographics or genotype. CSF biomarker assays were analyzed using Lumipulse (Fujirebio) and plasma assays utilized Simoa assays. Cognitive tests include the Rey Auditory Verbal Learning Test (RAVLT: immediate, delayed and recognition memory) and Digit Symbol Substitution Tests (DSST), and a composite Z-score is calculated (3-item RAVLT+DSST). Change from baseline (CBL) analyses were performed on the mITT population and included all observed data, using paired t-tests and 2-sided p-values. The primary biomarker outcome was p-tau181.
(§3) Of the 84 APOE4 carrier that were enrolled and received ALZ-801, 80 and 75 subjects completed 26 and 52 weeks respectively. […] This is much greater than the annualized ˜12% reduction in plasma p-tauisi observed in the recent human clinical trials of the anti-amyloid antibody lecanemab (van Dyck, C H et al., N Engl J Med 2023; 388: 9-21, DOI: 10.1056/NEJMoa2212948).

plasma Abeta42 = experiment: Phase 2 trial in early AD APOE4 carriers: plasma Abeta42; format: in vivo, human; conditions: 52 weeks; 265 mg BID oral; p=0.005
Protocol: as §1
as §2, with “p-tau181. […]” for “p-tau181.”

plasma Abeta40 = experiment: Phase 2 trial in early AD APOE4 carriers: plasma Abeta40; format: in vivo, human; conditions: 52 weeks; 265 mg BID oral; p=0.002
Protocol: as §1
as §2, with “p-tau181. […]” for “p-tau181.”

[1] = Phase 2 trial in early AD APOE4 carriers: brain volumes (hippocampal, ventricular; MRI) vs matched ADNI cohort; format: in vivo, human
Protocol: as §1
Unlike anti-amyloid antibodies, such as Lecanemab, ALZ-801 treatment over 52 weeks also appeared to show an ˜15% reduction in ventricular volume expansion as measured by MRI (p=0.08).

[2] = system: plasma p-tau181/Abeta42 ratio; experiment: Phase 2 trial in early AD APOE4 carriers: plasma p-tau181/Abeta42 ratio; format: in vivo, human; conditions: 265 mg BID oral
Protocol: as §1, §2, §3

[3] = cited from earlier work

Row | Molecule | reduction in plasma p-tau181 (plasma p-tau181; 13 weeks, p=0.014) [%] | reduction in plasma p-tau181 (plasma p-tau181; 26 weeks, p=0.014) [%] | reduction in plasma p-tau181 (plasma p-tau181; 52 weeks, p=0.016) [%] | reduction in plasma Abeta42 (plasma Abeta42) [%] | reduction in plasma Abeta40 (plasma Abeta40) [%] | annualized reduction in atrophy of hippocampal volume ([1]; compared to a well-matched ADNI cohort, p=0.05) [%] | reduction in ventricular volume expansion ([1]; over 52 weeks, measured by MRI, p=0.08) [%] | reduction in plasma p-tau181/Abeta42 ratio ([2]; 13 weeks, p=0.011) [%] | reduction in plasma p-tau181/Abeta42 ratio ([2]; 26 weeks, p=0.011) [%] | reduction in plasma p-tau181/Abeta42 ratio ([2]; 52 weeks, p=0.032) | annualized reduction in hippocampal volume atrophy, result in words ([3]; Van Dyck, 2022) | annualized reduction in plasma p-tau181 ([3]; recent human clinical trials of lecanemab, van Dyck et al. N Engl J Med 2023) [%]
1 | CC(C)[C@H](N)C(=O)NCCCS(=O)(=O)O [ALZ-801, valyl-3-amino-1-propanesulfonic acid] | 18 | 29 | 41 | 5 | 5 | ~20 | ~15 | 21 | 30 | 37% and 31% | – | –
2 | B1 | – | – | – | – | – | – | – | – | – | – | did not demonstrate any significant annualized reduction | ~12
